Five molecules from US6620419B1, “Cosmetic or dermopharmaceutical use of peptides for healing, hydrating and improving skin appearance during natural or induced ageing (heliodermia, pollution)” (Sederma, priority 1998, dated 2003) can be followed below.

Common to all, as to format: cell-based
For assay [1], the system named is explants of human skin. Description: Increase in synthesis of collagen in vitro: 3H-proline incorporation in human skin explants. As to conditions: for increase of incorporation of 3H-proline (synthesis of collagen) relative to blank tests: 72 hours, human skin explants. As for the experimental part: The method chosen is a modification of that described by Augustin C. et al. (Skin Pharmacol. (1997); 10:63-70) in that we have used explants of human skin instead of human pulmonary fibroblasts, so as to render our results directly usable in cosmetology. These explants, from abdominal or mammary plastic surgery, are incubated for 72 hours in the presence ^3H-proline, with peptide N-Palmitoyl-[…], to three final concentrations in the culture medium (2.10^-4%, 4.10^-4% and 8.10^-4%; namely, 2, 4 and 8 ppm). The explants are then washed, the […] of each explant are separated, homogenized and lysed. The measurement of the incorporation of ^3H-proline is thus carried out in each lysat. Tests were done in triplicate. In parallel, negative controls are carried out under the same conditions but in the absence of the peptide. Positive controls, themselves, are carried out by replacing the peptide tested by vitamin C.

Assay [2] relates to explants of human skin. Description: Increase of the synthesis of glycosaminoglycans in vitro: 3H-glucosamine incorporation in human skin explants. The settings on record: for increase of incorporation of 3H-glucosamine (synthesis of GAGs) relative to blank experiments: 72 hours, human skin explants. The protocol:
The method chosen is a modification of that described by Augustin C. et al. (Skin Pharmacol. (1997); 10:63-70) in that we have used explants of human skin instead of human pulmonary fibroblasts, so as to render our results directly usable in cosmetology.
These explants, from abdominal or mammary plastic surgery, are incubated for 72 hours in the presence ^3H-proline, with peptide N-Palmitoyl-Sarcosine-Thr-Thr-Lys-Ser, to three final concentrations in the culture medium (2.10^−4%, 4.10^−4% and 8.10^−4%; namely, 2, 4 and 8 ppm). The explants are then washed, the derma and epiderma of each explant are separated, homogenized and lysed. The measurement of the incorporation of ^3H-proline is thus carried out in each lysat. Tests were done in triplicate.
In parallel, negative controls are carried out under the same conditions but in the absence of the peptide. Positive controls, themselves, are carried out by replacing the peptide tested by vitamin C.
The same protocol as in Example No. 3 is used, except that, on the one hand, the incubation is carried out in the presence of ^3H-glucosamine instead of ^3H-proline and vitamin A acid is used as reference product in place of vitamin C.

The subject of another assay is human fibroblasts. As to the kind of experiment: Cutaneous toning activity in vitro: stimulation of protein synthesis, colorimetry (Biuret reaction). The settings on record: 24 hours, per 1000 cells. As for the experimental part: For 24 hours, human fibroblasts from the same cellular culture are placed in the presence of the standard culture medium, supplemented or not for controls, with given concentrations of peptide (2, 4 and 8 ppm).
The stimulation of the synthesis of proteins is evaluated by colorimetry (so-called Biuret reaction).
To standardize the results, the quantity of proteins measured is expressed for 1000 cells present in the test.

Non-standard residues stand in square brackets, D forms with d. No end group written: not given here. *: point of attachment. Palmitoyl = CCCCCCCCCCCCCCCC(=O)*; Sar = CNCC(=O)O

On to `O=C1O[C@H]([C@@H](O)CO)C(O)=C1O` [ascorbic acid, reference compound], for which the “increase of collagen synthesis” value with explants of human skin [1] (reference product at 0.5mM, same conditions) is given as 61.4 (±5) %.

With `CC1=C(/C=C/C(C)=C/C=C/C(C)=C/C(=O)O)C(C)(C)CCC1` [vitamin A acid, reference compound], in the assay on explants of human skin [2] (reference product at 100 nM, same conditions), the “increase of synthesis of GAGs” value is 45.3 (±2) %.

KTTKSA: the entries for the “increase of incorporation of 3H-glucosamine (synthesis of GAGs) relative to blank experiments” value with explants of human skin [2] (2 ppm peptide), with explants of human skin [2] (4 ppm peptide) and in the assay with explants of human skin [2] (8 ppm peptide) were 24.5 (±3) %, 48.8 (±3) % and 67.9 (±5) %, respectively.

Consider “N-Palmitoyl-Lys-Thr-Thr-Lys-Ser (Palmitoyl-KTTKS) [N-palmytoyl-Lys-Thr-Thr-Lys-Ser]”, for which the figures for the “increase in the concentration of proteins relative to control experiments” value with human fibroblasts (2 ppm peptide), in the assay with human fibroblasts (4 ppm peptide) and with human fibroblasts (8 ppm peptide) were 14.7 (±1.0) %, 21.0(±2.4) % and 44.8(±1.0) %, respectively.

For the molecule “N-Palmitoyl-Sarcosine-Thr-Thr-Lys-Ser (Palmitoyl-[Sar]TTKS)”, the figures for the “increase of incorporation of 3H-proline (synthesis of collagen) relative to blank tests” value in the assay on explants of human skin [1] (2 ppm peptide), in the assay with explants of human skin [1] (4 ppm peptide) and in the assay with explants of human skin [1] (8 ppm peptide) were 30.2 (±2) %, 54.7 (±5) % and 90.9 (±5) %, respectively.
